According to patent US10294202B2, “Pyrrolidinones as herbicides” (FMC Corporation, priority 2013, dated 2019):

How the values were obtained:
[1] = system: giant foxtail; assay: Test A pre-/postemergence herbicide test; type: in vivo, Setaria faberii; details: for Plant response rating, Foxtail, Giant: 0 to 100 scale
How it was run: (§1)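 Seeds in loam–sand blend received preemergence directed soil spray; separately, plants 2–10 cm at one- to two-leaf stage received postemergence spray, both with test chemicals in non-phytotoxic solvent with surfactant. After ~10 days in greenhouse, injury rated visually against untreated controls, 0 (no effect) to 100 (complete control).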

[2] = system: velvetleaf; assay: Test A pre-/postemergence herbicide test; type: in vivo, Abutilon theophrasti; details: for Plant response rating, Velvetleaf: 0 to 100 scale
How it was run: as §1

[3] = system: sedge, umbrella; assay: Test B flooded paddy test; type: in vivo, Cyperus difformis; details: Flood, scale of 0 to 100 where 0 is no effect and 100 is complete control
How it was run: (§2)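 Treatment was made at the 2-leaf stage by dosing the standing floodwater, kept 3 cm above soil level for the whole test. Greenhouse exposure lasted 13 to 15 days. Response is a visual percent rating relative to controls, where a dash indicates no test result.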

[4] = system: wheat; assay: Test A pre-/postemergence herbicide test; type: in vivo, Triticum aestivum; details: for Plant response rating, Wheat: 0 to 100 scale
How it was run: as §1

[5] = system: pigweed; assay: Test A pre-/postemergence herbicide test; type: in vivo, Amaranthus retroflexus; details: for Plant response rating, Pigweed: 0 to 100 scale
How it was run: as §1

[6] = system: morningglory; assay: Test A pre-/postemergence herbicide test; type: in vivo, Ipomoea spp.; details: for Plant response rating, Morningglory: 0 to 100 scale
How it was run: as §1

[7] = system: crabgrass, large; assay: Test A pre-/postemergence herbicide test; type: in vivo, Digitaria sanguinalis; details: for Plant response rating, Crabgrass, Large: 0 to 100 scale
How it was run: as §1

[8] = system: corn; assay: Test A pre-/postemergence herbicide test; type: in vivo, Zea mays; details: for Plant response rating, Corn: 0 to 100 scale
How it was run: as §1

[9] = system: rice; assay: Test B flooded paddy test; type: in vivo, Oryza sativa; details: Flood, scale of 0 to 100 where 0 is no effect and 100 is complete control
How it was run: as §2

[10] = system: barnyardgrass; assay: Test A pre-/postemergence herbicide test; type: in vivo, Echinochloa crus-galli; details: for Plant response rating, Barnyardgrass: 0 to 100 scale
How it was run: as §1

[11] = system: barnyardgrass; assay: Test B flooded paddy test; type: in vivo, Echinochloa crus-galli; details: Flood, scale of 0 to 100 where 0 is no effect and 100 is complete control
How it was run: as §2

[12] = system: ducksalad; assay: Test B flooded paddy test; type: in vivo, Heteranthera limosa; details: Flood, scale of 0 to 100 where 0 is no effect and 100 is complete control
How it was run: as §2

[13] = 125 g ai/ha, visual rating, 0 no effect, 100 complete control, approximately 10 days, preemergence
[14] = Postemergence, 125 g ai/ha, 0 is no effect, 100 is complete control
[15] = preemergence, 500 g ai/ha, 0 is no effect and 100 is complete control

Row | Compound | Plant response rating, Foxtail, Giant [1, 13] | Plant response rating, Foxtail, Giant [1, 14] | Foxtail, Giant plant response rating (0 to 100 scale, 0 is no effect, 100 is complete control) ([1]; Postemergence, 500 g ai/ha) | Plant response rating, Foxtail, Giant [1, 15] | Plant response rating, Velvetleaf [2, 13] | Plant response rating, Velvetleaf [2, 14] | Velvetleaf plant response rating (0 to 100 scale, 0 is no effect, 100 is complete control) ([2]; Postemergence, 500 g ai/ha) | Plant response rating, Velvetleaf [2, 15] | Plant response rating, Sedge, Umbrella ([3]; 250 g ai/ha) | Plant response rating, Sedge, Umbrella ([3]; 1000 g ai/ha) | Plant response rating, Wheat [4, 13] | Plant response rating, Wheat [4, 14] | Wheat plant response rating (0 to 100 scale, 0 is no effect, 100 is complete control) ([4]; Postemergence, 500 g ai/ha) | Plant response rating, Wheat [4, 15] | Plant response rating, Pigweed [5, 13] | Plant response rating, Pigweed [5, 14] | Pigweed plant response rating (0 to 100 scale, 0 is no effect, 100 is complete control) ([5]; Postemergence, 500 g ai/ha) | Plant response rating, Pigweed [5, 15] | Plant response rating, Morningglory [6, 13] | Plant response rating, Morningglory [6, 14] | further results
1 | COc1cc(C2CNC(=O)C2C(=O)Nc2ccccc2F)ccc1F (racemic) [Compound 194] | 50 | 10 | 50 | 90 | 0 | 0 | 0 | 0 | 0 | 0 | 0 | 0 | 0 | 0 | 0 | 0 | 0 | 0 | 0 | 0 | Morningglory plant response rating (0 to 100 scale, 0 is no effect, 100 is complete control) ([6]; Postemergence, 500 g ai/ha): 0; Plant response rating, Morningglory [6, 15]: 0; Plant response rating, Crabgrass, Large [7, 13]: 90; Plant response rating, Crabgrass, Large [7, 14]: 60; Crabgrass, Large plant response rating (0 to 100 scale, 0 is no effect, 100 is complete control) ([7]; Postemergence, 500 g ai/ha): 80; Plant response rating, Crabgrass, Large [7, 15]: 100; Plant response rating, Corn [8, 13]: 0; Plant response rating, Corn [8, 14]: 0; Corn plant response rating (0 to 100 scale, 0 is no effect, 100 is complete control) ([8]; Postemergence, 500 g ai/ha): 0; Plant response rating, Corn [8, 15]: 0; Plant response rating, Rice ([9]; 250 g ai/ha): 0; Plant response rating, Rice ([9]; 1000 g ai/ha): 20; Plant response rating, Barnyardgrass [10, 13]: 0; Plant response rating, Barnyardgrass [10, 14]: 50; Barnyardgrass plant response rating (0 to 100 scale, 0 is no effect, 100 is complete control) ([10]; Postemergence, 500 g ai/ha): 80; Plant response rating, Barnyardgrass [10, 15]: 80; Plant response rating, Barnyardgrass ([11]; 250 g ai/ha): 0; Plant response rating, Barnyardgrass ([11]; 1000 g ai/ha): 65; Plant response rating, Ducksalad ([12]; 250 g ai/ha): 45; Plant response rating, Ducksalad ([12]; 1000 g ai/ha): 80
2 | COc1cc(C2CNC(=O)C2C(=O)Nc2cccc(F)c2F)ccc1F (racemic) [Compound 195] | 80 | 30 | 70 | 90 | 0 | 0 | 0 | 0 | 0 | 0 | 0 | 0 | 30 | 0 | 0 | 0 | 0 | 0 | 0 | 0 | Morningglory plant response rating (0 to 100 scale, 0 is no effect, 100 is complete control) ([6]; Postemergence, 500 g ai/ha): 0; Plant response rating, Morningglory [6, 15]: 0; Plant response rating, Crabgrass, Large [7, 13]: 90; Plant response rating, Crabgrass, Large [7, 14]: 80; Crabgrass, Large plant response rating (0 to 100 scale, 0 is no effect, 100 is complete control) ([7]; Postemergence, 500 g ai/ha): 80; Plant response rating, Crabgrass, Large [7, 15]: 90; Plant response rating, Corn [8, 13]: 0; Plant response rating, Corn [8, 14]: 0; Corn plant response rating (0 to 100 scale, 0 is no effect, 100 is complete control) ([8]; Postemergence, 500 g ai/ha): 0; Plant response rating, Corn [8, 15]: 0; Plant response rating, Rice ([9]; 250 g ai/ha): 0; Plant response rating, Rice ([9]; 1000 g ai/ha): 15; Plant response rating, Barnyardgrass [10, 13]: 30; Plant response rating, Barnyardgrass [10, 14]: 80; Barnyardgrass plant response rating (0 to 100 scale, 0 is no effect, 100 is complete control) ([10]; Postemergence, 500 g ai/ha): 90; Plant response rating, Barnyardgrass [10, 15]: 90; Plant response rating, Barnyardgrass ([11]; 250 g ai/ha): 30; Plant response rating, Barnyardgrass ([11]; 1000 g ai/ha): 70; Plant response rating, Ducksalad ([12]; 250 g ai/ha): 35; Plant response rating, Ducksalad ([12]; 1000 g ai/ha): 100
